Data from patent publication US20090197955A1, “METHODS OF IMPROVING DHA DEPOSITION AND RELATED FUNCTION AND/OR DEVELOPMENT” (Monsanto Company, priority 2008, published 2009).

Test: Fatty acid composition of pig tissues (ham, loin, belly, skin) after feeding SDA ethyl ester diets, 35 day study
Format: in vivo, pigs
Details: 35 days
Experimental: A 35 day study was conducted to determine whether pigs fed a diet containing SDA could enhance tissues with improved fatty acid profiles including increased levels of SDA, EPA, and DHA.
Four test diets (Treatment 2, 3, 4, and 5) with SDA ethyl ester substituted for corn oil to provide 0.2, 0.4, 0.6 and 0.8% (w/w SDA active ingredient, as-is basis) were fed ad libitum to one pen of four pigs throughout the 35-day test period Table 4). All diets were fed in meal form. Treatment 6 was fed the same diet as Treatment 5, but for a duration of only 21 days.
All pigs were individually weighed at initiation of the acclimation and test period, and immediately prior to slaughter. Feed consumption per pen was recorded. Upon completion of the feeding period, pigs were slaughtered for tissue collection and carcass evaluation. Pigs were slaughtered using standard industry practices (electrical stunning, exsanguinations, scalding, dehairing and evisceration). Live weights prior to slaughter and hot carcass weights were recorded. The left side of each carcass was fabricated and samples were obtained from the loin (longissimus muscle), ham (semimembranosus muscle) and belly (a section from the center of the belly) for sensory evaluation, fatty acid, and proximate analysis. Prior to removing the sample for sensory and fatty and proximate analysis from the belly the firmness of the belly was evaluated using a flop test. At 24 hr postmortem fat thickness (10th rib), loin eye area (10th rib), visual color, firmness and marbling, Minolta color (L*a*b*), pH, and drip loss were measured.
In order to evaluate the fatty acid composition of pig tissues (loin, ham, skin, and belly), samples were stored at −80° C. until evaluation. After thawing, ˜22 g of fresh pig tissue was chopped into small pieces and thoroughly mixed before 10 g was sub sampled and lyophilized. Lyophilized samples were ground in 30 ml Sarstedt tubes with two ball bearings using a Mega Grinder. Ground samples (loin and ham: 50 mg; skin: 100 mg; belly: 150 mg; diet: 500 mg) were directly methylated with sulfuric acid in methanol (loin and ham: 1 mL; skin: 3 mL; belly: 10 mL; diet: 1.5 mL) sealed in the presence of butylated hydroxytoluene (50 mg BHT in 100 ml reagent) in reflux conditions of 90° C. Resultant fatty acid methyl esters (FAME's) were separated by capillary gas chromatography (GC) and detected by flame ionization detector (FID). The column used was a Supelco Omegawax 250 capillary column with dimensions of 30 m×0.25 mm×0.25 μm film thickness. The run time was 32 minutes. Peaks were identified based on their relative retention time compared to a FAME reference mixture. Quantification was achieved by using an internal standard (c15:0 triacylglyceride (TAG) for pig tissue samples and c17:0 TAG for diet samples). Results are reported as FA g/100 g fat with theoretical response correction.
For Table 6 below, each value represents g/100 g total fatty acids a mean of 4 samples (1 sample from each of 4 pigs) per treatment.

In the case of `CC/C=C\C/C=C\C/C=C\C/C=C\CCCCC(=O)O` [SDA, stearidonic acid], the “24:1 n-9, ham” value (0.4% SDA feed) was 0.05 g FA per 100 g fat, the “Total PUFA, ham” value (0.4% SDA feed) was 13.34 g FA per 100 g fat and the “Total monoenes, ham” value (0.4% SDA feed) was 48.71 g FA per 100 g fat. The “Total n-3, ham” value (0.4% SDA feed) was 1.23 g FA per 100 g fat, the “Total n-6, ham” value (0.4% SDA feed) was 12.11 g FA per 100 g fat and the “Total saturates, ham” value (0.4% SDA feed) was 33.55 g FA per 100 g fat. The “n-6/n-3, ham” value (0.4% SDA feed) was 9.85, the “12:0, ham” value (0.6% SDA feed) was 0.06 g FA per 100 g fat and the “14:0, ham” value (0.6% SDA feed) was 1.05 g FA per 100 g fat. The “16:0, ham” value (0.6% SDA feed) was 21.49 g FA per 100 g fat, the “16:1 n-7, ham” value (0.6% SDA feed) was 3.03 g FA per 100 g fat and the “16:1 n-9, ham” value (0.6% SDA feed) was 0.26 g FA per 100 g fat. The “18:0, ham” value (0.6% SDA feed) was 11.47 g FA per 100 g fat, the “18:1 n-7, ham” value (0.6% SDA feed) was 4.08 g FA per 100 g fat and the “18:1 n-9, ham” value (0.6% SDA feed) was 37.64 g FA per 100 g fat. The “18:2 n-6 (LA), ham” value (0.6% SDA feed) was 9.92 g FA per 100 g fat, the “18:3 n-3 (ALA), ham” value (0.6% SDA feed) was 0.22 g FA per 100 g fat and the “18:3 n-6 (GLA), ham” value (0.6% SDA feed) was 0.14 g FA per 100 g fat. The “18:4 n-3 (SDA), ham” value (0.6% SDA feed) was 0.16 g FA per 100 g fat, the “20:0, ham” value (0.6% SDA feed) was 0.16 g FA per 100 g fat and the “20:1 n-7, ham” value (0.6% SDA feed) was 0.04 g FA per 100 g fat. For the same compound, the “20:1 n-9, ham” value (0.6% SDA feed) was 0.59 g FA per 100 g fat, the “20:1 n-11, ham” value (0.6% SDA feed) was 0.03 g FA per 100 g fat and the “20:2 n-6, ham” value (0.6% SDA feed) was 0.28 g FA per 100 g fat. The “20:3 n-3, ham” value (0.6% SDA feed) was 0.04 g FA per 100 g fat, the “20:3 n-6 (DGLA), ham” value (0.6% SDA feed) was 0.43 g FA per 100 g fat and the “20:4 n-3 (ETA), ham” value (0.6% SDA feed) was 0.26 g FA per 100 g fat. The “20:4 n-6 (AA), ham” value (0.6% SDA feed) was 2.60 g FA per 100 g fat, the “20:5 n-3 (EPA), ham” value (0.6% SDA feed) was 0.54 g FA per 100 g fat and the “22:0, ham” value (0.6% SDA feed) was 0.07 g FA per 100 g fat. For the same compound, the “22:1 n-9, ham” value (0.6% SDA feed) was 0.00 g FA per 100 g fat, the “22:1 n-11, ham” value (0.6% SDA feed) was 0.00 g FA per 100 g fat and the “22:1 n-13, ham” value (0.6% SDA feed) was 0.00 g FA per 100 g fat. For the same compound, the “22:2 n-7, ham” value (0.6% SDA feed) was 0.00 g FA per 100 g fat, the “22:3 n-6, ham” value (0.6% SDA feed) was 0.24 g FA per 100 g fat and the “22:5 n-3 (DPA), ham” value (0.6% SDA feed) was 0.67 g FA per 100 g fat. For the same compound, the “22:6 n-3 (DHA), ham” value (0.6% SDA feed) was 0.10 g FA per 100 g fat, the “24:1 n-9, ham” value (0.6% SDA feed) was 0.06 g FA per 100 g fat and the “Total PUFA, ham” value (0.6% SDA feed) was 15.59 g FA per 100 g fat. For the same compound, the “Total monoenes, ham” value (0.6% SDA feed) was 45.72 g FA per 100 g fat, the “Total n-3, ham” value (0.6% SDA feed) was 1.99 g FA per 100 g fat and the “Total n-6, ham” value (0.6% SDA feed) was 13.60 g FA per 100 g fat. The “Total saturates, ham” value (0.6% SDA feed) was 34.30 g FA per 100 g fat, the “n-6/n-3, ham” value (0.6% SDA feed) was 6.83 and the “12:0, ham” value (0.8% SDA feed) was 0.05 g FA per 100 g fat. For the same compound, the “14:0, ham” value (0.8% SDA feed) was 0.96 g FA per 100 g fat, the “16:0, ham” value (0.8% SDA feed) was 20.70 g FA per 100 g fat and the “16:1 n-7, ham” value (0.8% SDA feed) was 2.90 g FA per 100 g fat. The “16:1 n-9, ham” value (0.8% SDA feed) was 0.53 g FA per 100 g fat, the “18:0, ham” value (0.8% SDA feed) was 11.25 g FA per 100 g fat and the “18:1 n-7, ham” value (0.8% SDA feed) was 4.27 g FA per 100 g fat. The “18:1 n-9, ham” value (0.8% SDA feed) was 35.19 g FA per 100 g fat, the “18:2 n-6 (LA), ham” value (0.8% SDA feed) was 11.90 g FA per 100 g fat and the “18:3 n-3 (ALA), ham” value (0.8% SDA feed) was 0.25 g FA per 100 g fat. For the same compound, the “18:3 n-6 (GLA), ham” value (0.8% SDA feed) was 0.21 g FA per 100 g fat, the “18:4 n-3 (SDA), ham” value (0.8% SDA feed) was 0.24 g FA per 100 g fat and the “20:0, ham” value (0.8% SDA feed) was 0.13 g FA per 100 g fat. For the same compound, the “20:1 n-7, ham” value (0.8% SDA feed) was 0.04 g FA per 100 g fat, the “20:1 n-9, ham” value (0.8% SDA feed) was 0.52 g FA per 100 g fat and the “20:1 n-11, ham” value (0.8% SDA feed) was 0.03 g FA per 100 g fat. The “20:2 n-6, ham” value (0.8% SDA feed) was 0.27 g FA per 100 g fat, the “20:3 n-3, ham” value (0.8% SDA feed) was 0.03 g FA per 100 g fat and the “20:3 n-6 (DGLA), ham” value (0.8% SDA feed) was 0.50 g FA per 100 g fat. For the same compound, the “20:4 n-3 (ETA), ham” value (0.8% SDA feed) was 0.29 g FA per 100 g fat, the “20:4 n-6 (AA), ham” value (0.8% SDA feed) was 3.12 g FA per 100 g fat and the “20:5 n-3 (EPA), ham” value (0.8% SDA feed) was 0.87 g FA per 100 g fat. For the same compound, the “22:0, ham” value (0.8% SDA feed) was 0.10 g FA per 100 g fat, the “22:1 n-9, ham” value (0.8% SDA feed) was 0.00 g FA per 100 g fat and the “22:1 n-11, ham” value (0.8% SDA feed) was 0.00 g FA per 100 g fat. The “22:1 n-13, ham” value (0.8% SDA feed) was 0.00 g FA per 100 g fat and the “22:2 n-7, ham” value (0.8% SDA feed) was 0.00 g FA per 100 g fat.
